Consider 26 compounds from patent US7642277B2, “Non-nucleoside reverse transcriptase inhibitors” (Boehringer Ingelheim International GmbH, priority 2002, dated 2010).

Assay [1] addresses T1, HIV-1 RT resistant mutant K103N/Y181C (Human immunodeficiency virus type 1 group M subtype B, UniProt P04585, K690N/Y768C).
T1 construct: The reverse transcriptase (RT) enzyme assay has been adapted to a 96-well microtiter plate format
The assay is described as follows: Reverse transcriptase (RT) enzymatic assay (IC50), PicoGreen fluorescence, resistant mutant. It counts as biochemical. The method, then: (§1) Reverse Transcriptase (RT) Assays Enzymatic Assay (IC50)
The enzymatic assay employed is described as follows: The reverse transcriptase (RT) enzyme assay has been adapted to a 96-well microtiter plate format and uses PicoGreen™ as a fluorescent intercalator. More explicitly, the HIV-1 RT enzyme was thawed and appropriately diluted into Tris/HCl 50 mM pH 7.8 containing NaCl 60 mM, MgCl2∘6H2O 2 mM, DTT 6 mM, GSH 2 mM and 0.02% w/v Chaps to give ≈10 nM enzyme. To 10 μL of this enzyme solution was added 10 μL of inhibitor solution (40 μM to […] inhibitor in the same assay buffer as above containing 4% v/v DMSO). The plate was pre-incubated for 15 minutes at room temperature before proceeding to the next step. In this pre-incubation step, the highest and lowest inhibitor concentrations were 20 μM and 1.016 nM respectively and the concentration of DMSO was 2% v/v. Then the enzymatic reaction was initiated by addition of 20 μL of substrate solution. The final reaction mixture contained Tris/HCl 50 mM pH 7.8, NaCl 60 mM, MgCl2∘6H2O 2 mM, DTT 6 mM, GSH 2 mM, CHAPS 0.02% w/v, DMSO 1% v/v, poly rC 45 nM, dG15 4.5 nM, dGTP 3.6 μM, and ≈2.5 nM enzyme. In this incubation step, the highest and lowest inhibitor concentrations were 10 μM and 0.508 nM respectively. After addition of the substrate cocktail, the plate was covered with a plastic seal and incubated for 50 minutes at 37° C. in a dry incubator. The reaction was then quenched by addition of 5 μL of EDTA 0.5 M. The plate was shaken for 30 seconds at medium speed and incubated for 5 minutes at room temperature. Then 160 μL of PicoGreen™ 1:400 dilution from commercial stock (diluted in Tris 20 mM pH 7.5 with EDTA 1 mM) was added and the plate was shaken for 30 seconds and incubated for 10 minutes at room temperature. The plate was then analyzed using a POLARstar Galaxy fluorimeter (BMG Labtechnologies) with λex and λem of 485 nm and 520 nm respectively. […] Each row contained at its extremities a blank and a control well.
(§2) Table legend: A=>100; B=100-50; C=<50; NT=not tested

The target in assay [2] is T2, HIV-1 RT enzyme (wild type) (Human immunodeficiency virus type 1 group M subtype B, UniProt P04585).
T2 construct: The reverse transcriptase (RT) enzyme assay has been adapted to a 96-well microtiter plate format
Description: Reverse transcriptase (RT) enzymatic assay (IC50), PicoGreen fluorescence, wild type. Particulars: RT enzymatic assay, wild type; read-out: IC50 WT. It is filed as biochemical. The method, then:
as §1
The enzymatic assay employed is described as follows: The reverse transcriptase (RT) enzyme assay has been adapted to a 96-well microtiter plate format and uses PicoGreen™ as a fluorescent intercalator. More explicitly, the HIV-1 RT enzyme was thawed and appropriately diluted into Tris/HCl 50 mM pH 7.8 containing NaCl 60 mM, MgCl2∘6H2O 2 mM, DTT 6 mM, GSH 2 mM and 0.02% w/v Chaps to give ≈10 nM enzyme. […] The plate was pre-incubated for 15 minutes at room temperature before proceeding to the next step. […] Then the enzymatic reaction was initiated by addition of 20 μL of substrate solution. […] After addition of the substrate cocktail, the plate was covered with a plastic seal and incubated for 50 minutes at 37° C. in a dry incubator. The reaction was then quenched by addition of 5 μL of EDTA 0.5 M. The plate was shaken for 30 seconds at medium speed and incubated for 5 minutes at room temperature. Then 160 μL of PicoGreen™ 1:400 dilution from commercial stock (diluted in Tris 20 mM pH 7.5 with EDTA 1 mM) was added and the plate was shaken for 30 seconds and incubated for 10 minutes at room temperature. […] Each row contained at its extremities a blank and a control well.
as §2

The subject of assay [3] is HIV-1 (wild type) in C8166 LTRluc cells. The assay is described as follows: C8166 HIV-1 luciferase assay (EC50), wild type. It counts as cell-based. Particulars: Human immunodeficiency virus 1, C8166 HIV-1 luciferase assay (no *).
Text: (§3) C8166 HIV-1 Luciferase Assay (EC50)
(§4) Plasmid: pGL3 Basic LTR/TAR #12
Plasmid is the pGL3 Basic Vector (a promoterless luciferase expression vector from Promega catalogue #E1751) with the addition of HIV-1 H×B2 LTR sequence from nucleotide −138 to +80 (Sca1-HindIII) upstream of the luciferase gene and the gene for blasticidine resistance cloned in.
(§5) C8166 cells are a human T-lymphotrophic virus type 1 immortalized but nonexpressing line of cord blood lymphocytes and are highly permissive to HIV-1 infection. The reporter cells were made by electroporating C8166 cells with pGL3 Basic LTR/TAR and then selecting positive clones with blasticidine. The clone C8166-LTRluc #A8-F5-G7 was selected by 3 consecutive rounds of limiting dilution under blasticidine selection.
(§6) Media: Complete media consisting of: RPMI 1640+10% FBS+10^−5 M
(§7) β-mercaptoethanol+10 μg/ml gentamycin. Cultures are maintained in complete media with 5 μg/ml blasticidine, however, selection is removed for the assay.
(§8) Luciferase Assay Protocol
Serial dilutions of HIV-1 inhibitors compounds are prepared in complete media from 10 mM DMSO stock solutions. Eleven serial dilutions of 2.5× are made at 8× desired final concentration in a 1 ml deep well titer plate (96 wells). The 12th well contains complete media with no inhibitor and serves as the positive control. All samples contain the same concentration of DMSO (≦0.1% DMSO). A 25 μl aliquot of inhibitor is added, to triplicate wells, of a 96 well tissue culture treated clear view black microtiter plate (Corning Costar catalogue # 3904). The last row is reserved for uninfected C8166 LTRluc cells to serve as the background blank control and the first row is media alone.
Count C8166 LTRluc cells and place in a minimal volume of complete RPMI 1640 in a tissue culture flask (ex. 30×10^6 cells in 10 ml media/25 cm^2 flask). Infect cells with HIV-1 at a moi of 0.005. Incubate cells for 1.5 hours at 37° C. on a rotating rack in a 5% CO2 incubator. Resuspend cells in complete RPMI to give a final concentration of 25,000-cells/175 μl. Add 175 μl of cell mix to wells of 96 well microtiter plate containing 25 μl 8× inhibitors. Add 25,000 uninfected C8166-LTRluc cells/well in 200 μl complete RPMI to last row for background control. Incubate cells at 37° C. in 5% CO2 incubator for 3 days.
(§9) Add 50 μl Steady Glo (luciferase substrate T1/2=5 hours Promega catalogue # E2520) to each well of the 96 well plate. Determine the relative light units (RLU) of luciferase using the BMG LUMlstar Galaxy luminometer. Plates are read from the bottom for 2 seconds per well with a gain of 240.
(§10) The level of inhibition (% inhibition) of each well containing inhibitor was calculated with the following equation: […]
The calculated % inhibition values were then used to determine EC50, slope factor (n) and maximum inhibition (Imax) by the non-linear regression routine NLIN procedure of SAS using the following equation: […]
The results are listed in Table 9 as IC50(nM) and EC50 (nM).
as §2

In assay [4] the test system is HIV-1 resistant mutant K103N/Y181C in C8166 LTRluc cells. The assay is described as follows: C8166 HIV-1 luciferase assay (EC50), resistant mutant. It counts as cell-based. Conditions: Human immunodeficiency virus 1, C8166, read-out: EC50 K103N/Y181C.
Text: as §3, §4, §5, §6, §7, §8
Eleven serial dilutions of 2.5× are made at 8× desired final concentration in a 1 ml deep well titer plate (96 wells). The 12th well contains complete media with no inhibitor and serves as the positive control. All samples contain the same concentration of DMSO (≦0.1% DMSO). A 25 μl aliquot of inhibitor is added, to triplicate wells, of a 96 well tissue culture treated clear view black microtiter plate (Corning Costar catalogue # 3904). The last row is reserved for uninfected C8166 LTRluc cells to serve as the background blank control and the first row is media alone.
Count C8166 LTRluc cells and place in a minimal volume of complete RPMI 1640 in a tissue culture flask (ex. 30×10^6 cells in 10 ml media/25 cm^2 flask). […] Incubate cells for 1.5 hours at 37° C. on a rotating rack in a 5% CO2 incubator. Resuspend cells in complete RPMI to give a final concentration of 25,000-cells/175 μl. Add 175 μl of cell mix to wells of 96 well microtiter plate containing 25 μl 8× inhibitors. Add 25,000 uninfected C8166-LTRluc cells/well in 200 μl complete RPMI to last row for background control. Incubate cells at 37° C. in 5% CO2 incubator for 3 days.
as §9, §10
The calculated % inhibition values were then used to determine EC50, slope factor (n) and maximum inhibition (Imax) by the non-linear regression routine NLIN procedure of SAS using the following equation:
as §2

Turning to `O=C(CSc1nc2ccccc2n1-c1cccc2ccccc12)Nc1ccccc1[N+](=O)[O-]` [Entry 411], the IC50 in assay [1] and in assay [2] was > 100 nM each time.

Take `O=C(CSc1nnnn1-c1cccc(Cl)c1)Nc1ccccc1[N+](=O)[O-]` [Entry 119]: the IC50 in assay [1] and in assay [2] was > 100 nM throughout.

For `CC(C)c1ccccc1-n1nnnc1SCC(=O)Nc1ccccc1[N+](=O)[O-]` [Entry 112], the IC50 in assay [1] and in assay [2] was > 100 nM throughout.

Take `Cc1ccc(NC(=O)CSc2nnnn2-c2ccc(C)cc2Cl)c(Cl)c1` [Entry 502]: the results for the IC50 in assay [1] and in assay [2] were > 100 nM and < 50 nM, respectively. In assay [3], the EC50 was < 50 nM.

Consider `Cc1ccc(-n2nnnc2SCC(=O)Nc2ccccc2Cl)c(Br)c1` [Entry 701], for which the IC50 in assay [1] was > 100 nM; in assay [2], < 50 nM.

In the case of `Cc1ccc(-n2nnnc2SCC(=O)Nc2ccccc2Cl)c(Cl)c1` [Entry 501], the figures for the EC50 in assay [4] and in assay [3] were > 100 nM and < 50 nM, respectively.

`OC(COc1ccccc1Cl)CSc1nnnn1-c1cccc2ccccc12` (stereo not shown) [Entry 325]: the IC50 in assay [1] and in assay [2] was > 100 nM in each case.

On to `O=C(COc1ccccc1-c1ccccc1)Nc1ccccc1[N+](=O)[O-]` [Entry 413], for which the IC50 in assay [1] and in assay [2] was > 100 nM in each case.

Consider `CCc1ccccc1-n1nnnc1SCC(=O)Nc1ccccc1[N+](=O)[O-]` [Entry 110], for which the IC50 in assay [1] and in assay [2] was > 100 nM each time.

For the compound `CC(C)(C)c1ccc(-n2nnnc2SCC(=O)Nc2ccc(S(C)(=O)=O)cc2Cl)c(Cl)c1` [Entry 603], the EC50 in assay [4] and in assay [3] was < 50 nM each time.

As to `Cc1ccc(-c2ccccc2SCC(=O)Nc2ccc(C(=O)O)cc2Cl)c(Cl)c1` [Entry 419], the values for the IC50 in assay [1] and in assay [2] were > 100 nM and < 50 nM, respectively. Further, the EC50 in assay [3] lay in the range of 50 to 100 nM.

For `COC(=O)c1ccc(NC(=O)CSc2nnnn2-c2ccc(C)cc2Cl)c([N+](=O)[O-])c1` [Entry 506], the IC50 is > 100 nM in assay [1] and < 50 nM in assay [2].

Turning to `O=C(CSc1nnnn1-c1ccccc1)Nc1ccccc1[N+](=O)[O-]` [Entry 108], the IC50 in assay [1] and in assay [2] was > 100 nM throughout.

For `O=C(CSc1nnnn1-c1ccc(Cl)c(C(F)(F)F)c1)Nc1ccccc1[N+](=O)[O-]` [Entry 137], the IC50 in assay [1] and in assay [2] was > 100 nM throughout.

With `Cc1ccc(C)c(NC(=O)CSc2nnnn2-c2cccc3ccccc23)c1` [Entry 240], the IC50 in assay [1] and in assay [2] was > 100 nM in each case.

With `O=C(CSc1nnnn1-c1cccc2ccccc12)Nc1ccccc1` [Entry 201], the IC50 in assay [1] and in assay [2] was > 100 nM each time.

For `COC(=O)c1ccc(NC(=O)CSc2ccccc2-c2ccc(C)cc2Cl)c(Cl)c1` [Entry 418], the values for the IC50 in assay [1] and in assay [2] were > 100 nM and < 50 nM, respectively. This compound also showed an EC50 in assay [3] of 50 to 100 nM.

For `Cc1ccccc1NC(=O)CSc1nnnn1-c1cccc2ccccc12` [Entry 202], the IC50 in assay [1] and in assay [2] was > 100 nM throughout.

With `O=C(CSc1ccccc1-c1cccc2ccccc12)Nc1ccccc1Cl` [Entry 406, 2-{{2-(1-Naphthalenyl)phenyl}thio}-N-(2-chorophenyl)acetamide], the figures for the IC50 in assay [1] and in assay [2] were > 100 nM and < 50 nM, respectively. Moreover, the EC50 in assay [3] was > 100 nM.

For `O=C(CSc1nnnn1-c1ccc(Cl)cc1Cl)Nc1ccccc1[N+](=O)[O-]` [Entry 126], the IC50 in assay [1] and in assay [2] was > 100 nM throughout.

Take `c1ccc2c(-n3nnnc3SCc3nc4ccccc4[nH]3)cccc2c1` [Entry 339]: the IC50 in assay [2] is > 100 nM.

Turning to `O=C(C=Cc1nnnn1-c1cccc2ccccc12)Nc1ccccc1[N+](=O)[O-]` [Entry 307], the IC50 in assay [2] was > 100 nM.

On to `O=C(CSc1ccccc1Br)Nc1ccccc1Cl` [Entry 426], for which the IC50 in assay [2] is > 100 nM.

In the case of `O=C(Nc1ccccc1[N+](=O)[O-])C1CC1c1nnnn1-c1cccc2ccccc12` (stereo not shown) [Entry 343], the IC50 in assay [2] was > 100 nM.

Consider `O=C(CSCc1nnnn1-c1cccc2ccccc12)Nc1ccccc1[N+](=O)[O-]` [Entry 335], for which, in assay [2], the IC50 is > 100 nM.

Regarding `COc1ccc(NC(=O)CSc2nnnn2-c2cccc3ccccc23)c(Cl)c1` [Entry 237], the values for the IC50 in assay [1] and in assay [2] were > 100 nM and < 50 nM, respectively. Besides, the EC50 in assay [3] is < 50 nM.

Broadly, the IC50 is the concentration needed to halve the response being measured.
